In patent US7098340B2, “Benzyl sulfonamide derivatives” (Warner Lambert Company LLC, priority 2003, dated 2006):

Molecular target: T1, androgen receptor (Homo sapiens, UniProt P10275)
T1 sequence (P10275 1-920 Q868H): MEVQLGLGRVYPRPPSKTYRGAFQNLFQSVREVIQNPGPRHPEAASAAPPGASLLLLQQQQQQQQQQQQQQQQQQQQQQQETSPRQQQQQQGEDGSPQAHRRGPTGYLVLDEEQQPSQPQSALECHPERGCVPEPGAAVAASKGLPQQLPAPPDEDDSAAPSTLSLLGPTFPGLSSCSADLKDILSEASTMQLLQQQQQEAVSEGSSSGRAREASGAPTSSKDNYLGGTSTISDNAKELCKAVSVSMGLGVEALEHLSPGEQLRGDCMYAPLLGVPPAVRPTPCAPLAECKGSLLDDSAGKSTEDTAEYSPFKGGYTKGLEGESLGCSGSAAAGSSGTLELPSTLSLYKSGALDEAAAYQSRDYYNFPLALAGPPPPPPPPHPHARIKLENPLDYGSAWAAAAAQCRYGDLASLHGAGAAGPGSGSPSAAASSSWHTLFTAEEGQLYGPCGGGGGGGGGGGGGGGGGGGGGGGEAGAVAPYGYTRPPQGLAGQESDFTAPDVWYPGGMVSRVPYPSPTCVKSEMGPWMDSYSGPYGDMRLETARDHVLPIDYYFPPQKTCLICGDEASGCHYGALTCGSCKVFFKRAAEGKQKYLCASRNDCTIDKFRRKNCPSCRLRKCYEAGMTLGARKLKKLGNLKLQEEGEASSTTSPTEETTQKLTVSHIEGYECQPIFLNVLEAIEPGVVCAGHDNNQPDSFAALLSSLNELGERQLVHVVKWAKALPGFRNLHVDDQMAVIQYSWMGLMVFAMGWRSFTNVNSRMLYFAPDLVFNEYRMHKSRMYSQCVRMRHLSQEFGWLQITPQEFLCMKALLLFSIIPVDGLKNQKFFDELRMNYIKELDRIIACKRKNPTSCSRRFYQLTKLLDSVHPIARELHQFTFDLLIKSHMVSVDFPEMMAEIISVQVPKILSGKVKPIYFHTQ
Test: AR Antagonist Cell Assay (MMTV-luciferase reporter, DHT-stimulated)
Format: cell-based
Details: MDA-MB453-MMTV clone 54-19 cells; antagonism of 100 pM DHT, 17 hr, luciferase readout
Outline: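 MDA-MB453 cells stably carrying MMTV-ARE-firefly luciferase, in 1% charcoal-treated serum, preincubated 30 min with compound (10 uM or 1 uM) then stimulated with 100 pM DHT for 17 h at 37° C. Luminescence read; result as % inhibition of DHT fold induction.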

| Structure (SMILES) | IC50 [µM] |
| --- | --- |
| O=c1cc(C(F)(F)F)c2cc(Cc3ccc(S(=O)(=O)N(CCO)C4CCCCC4)cc3)ccc2o1 [Example 95, N-Cyclohexyl-N-(2-hydroxyethyl)-4-(2-oxo-4-trifluoromethyl-2H-chromen-6-ylmethyl)benzenesulfonamide] | 1.03 |
| CN1CCC(N(C)S(=O)(=O)c2ccc(Cc3ccc4oc(=O)cc(C(F)(F)F)c4c3)cc2)CC1 [Example 96, N-Methyl-N-(1-methylpipendin-4-yl)-4-(2-oxo-4-trifluoromethyl-2H-chromen-6-ylmethyl)-benzenesulfonamide] | > 10 |
| CCCCN(CCCC)S(=O)(=O)c1ccc(Cc2ccc3oc(=O)cc(C(F)(F)F)c3c2)cc1 [Example 97, N,N-Dibutyl-4-(2-oxo-4-trifluoromethyl-2H-chromen-6-ylmethyl)benzenesulfonamide] | 6.23 |
| CCN(Cc1ccncc1)S(=O)(=O)c1ccc(Cc2ccc3oc(=O)cc(C(F)(F)F)c3c2)cc1 [Example 98, N-Ethyl-4-(2-oxo-4-trifluoromethyl-2H-chromen-6-ylmethyl)-N-pyridin-4-ylmethyl-benzenesulfonamide] | 2.43 |
| CCCCN(CC)S(=O)(=O)c1ccc(Cc2ccc3oc(=O)cc(C(F)(F)F)c3c2)cc1 [Example 99, N-Butyl-N-ethyl-4-(2-oxo-4-trifluoromethyl-2H-chromen-6-ylmethyl)benzenesulfonamide] | 4.15 |
| CCCCN(CCO)S(=O)(=O)c1ccc(Cc2ccc3oc(=O)cc(C(F)(F)F)c3c2)cc1 [Example 100, N-Butyl-N-(2-hydroxyethyl)-4-(2-oxo-4-trifluoromethyl-2H-chromen-6-ylmethyl)-benzenesulfonamide] | ~10 |
| CC(C)N(C)S(=O)(=O)c1ccc(Cc2ccc3oc(=O)cc(C(F)(F)F)c3c2)cc1 [Example 101, N-Isopropyl-N-methyl-4-(2-oxo-4-trifluoromethyl-2H-chromen-6-ylmethyl)-benzenesulfonamide] | 2.65 |
| CCCN(CCO)S(=O)(=O)c1ccc(Cc2ccc3oc(=O)cc(C(F)(F)F)c3c2)cc1 [Example 102, N-(2-Hydroxyethyl)-4-(2-oxo-4-trifluoromethyl-2H-chromen-6-ylmethyl)-N-propylbenzenesulfonamide] | 2.91 |
| O=c1cc(C(F)(F)F)c2cc(Cc3ccc(S(=O)(=O)N(CCO)Cc4ccccc4)cc3)ccc2o1 [Example 103, N-Benzyl-N-(2-hydroxyethyl)-4-(2-oxo-4-trifluoromethyl-2H-chromen-6-ylmethyl)-benzenesulfonamide] | ~10 |
| CCCN(CC1CC1)S(=O)(=O)c1ccc(Cc2ccc3oc(=O)cc(C(F)(F)F)c3c2)cc1 [Example 104, N-Cyclopropylmethyl-4-(2-oxo-4-trifluoromethyl-2H-chromen-6-ylmethyl)-N-propylbenzenesulfonamide] | 1.79 |
| CCCCCN(CCO)S(=O)(=O)c1ccc(Cc2ccc3oc(=O)cc(C(F)(F)F)c3c2)cc1 [Example 105] | 3.52 |
| CN(C1CCCCC1)S(=O)(=O)c1ccc(Cc2ccc3oc(=O)cc(C(F)(F)F)c3c2)cc1 [Example 106, N-Cyclohexyl-N-methyl-4-(2-oxo-4-trifluoromethyl-2H-chromen-6-ylmethyl)-benzenesulfonamide] | > 10 |
| CCCCN(C)S(=O)(=O)c1ccc(Cc2ccc3oc(=O)cc(C(F)(F)F)c3c2)cc1 [Example 107, N-Butyl-N-methyl-4-(2-oxo-4-trifluoromethyl-2H-chromen-6-ylmethyl)benzenesulfonamide] | 3.45 |
| CN(CCC#N)S(=O)(=O)c1ccc(Cc2ccc3oc(=O)cc(C(F)(F)F)c3c2)cc1 [Example 108, N-(2-Cyanoethyl)-N-methyl-4-(2-oxo-4-trifluoromethyl-2H-chromen-6-ylmethyl)-benzenesulfonamide] | 4.72 |
| CCN(Cc1ccccc1)S(=O)(=O)c1ccc(Cc2ccc3oc(=O)cc(C(F)(F)F)c3c2)cc1 [Example 110, N-Benzyl-N-ethyl-4-(2-oxo-4-trifluoromethyl-2H-chromen-6-ylmethyl)benzenesulfonamide] | 5.94 |
| CN(CCc1ccccn1)S(=O)(=O)c1ccc(Cc2ccc3oc(=O)cc(C(F)(F)F)c3c2)cc1 [Example 111, N-Methyl-4-(2-oxo-4-trifluoromethyl-2H-chromen-6-ylmethyl)-N-(2-pyridin-2-ylethyl)benzenesulfonamide] | 4.78 |
| CN(CCc1ccccc1)S(=O)(=O)c1ccc(Cc2ccc3oc(=O)cc(C(F)(F)F)c3c2)cc1 [Example 112, N-Methyl-4-(2-oxo-4-trifluoromethyl-2H-chromen-6-ylmethyl)-N-phenethyl-benzenesulfonamide] | > 10 |
| CN(c1ccccc1)S(=O)(=O)c1ccc(Cc2ccc3oc(=O)cc(C(F)(F)F)c3c2)cc1 [Example 114, N-Methyl-4-(2-oxo-4-trifluoromethyl-2H-chromen-6-ylmethyl)-N-phenylbenzenesulfonamide] | 5.94 |
| Cc1cccc(NS(=O)(=O)c2ccc(Cc3ccc4oc(=O)cc(C(F)(F)F)c4c3)cc2)c1 [Example 115, 4-(2-Oxo-4-trifluoromethyl-2H-chromen-6-ylmethyl)-N-m-tolylbenzenesulfonamide] | 2.05 |

Continued, values first:

| IC50 [µM] | Structure (SMILES) |
| --- | --- |
| > 10 | Cc1ccc(F)c(CNS(=O)(=O)c2ccc(Cc3ccc4[nH]c(=O)cc(C(F)(F)F)c4c3)cc2)c1Cl [Example 84, N-(2-Chloro-6-fluoro-3-methylbenzyl)-4-(2-oxo-4-trifluoromethyl-1,2-dihydroquinolin-6-ylmethyl)-benzenesulfonamide] |
| ~10 | O=c1cc(C(F)(F)F)c2cc(Cc3ccc(S(=O)(=O)NCc4ccc(Cl)cc4Cl)cc3)ccc2[nH]1 [Example 85, N-(2,4-Dichlorobenzyl)-4-(2-oxo-4-trifluoromethyl-1,2-dihydroquinolin-6-ylmethyl)-benzenesulfonamide] |
| 2.28 | O=c1cc(C(F)(F)F)c2cc(Cc3ccc(S(=O)(=O)NC4CCN(Cc5ccccc5)C4)cc3)ccc2[nH]1 (stereo not shown) [Example 86] |
| > 10 | O=c1cc(C(F)(F)F)c2cc(Cc3ccc(S(=O)(=O)NCc4c(F)ccc(F)c4Cl)cc3)ccc2[nH]1 [Example 87, N-(2-Chloro-3,6-difluorobenzyl)-4-(2-oxo-4-trifluoromethyl-1,2-dihydroquinolin-6-ylmethyl)-benzenesulfonamide] |
| > 10 | CCOC(=O)C(NS(=O)(=O)c1ccc(Cc2ccc3[nH]c(=O)cc(C(F)(F)F)c3c2)cc1)c1ccccc1 (stereo not shown) [Example 89, [4-(2-Oxo-4-trifluoromethyl-1,2-dihydroquinolin-6-ylmethyl)-benzenesulfonylamino]-phenylacetic acid ethyl ester] |
| 2.62 | O=c1cc(C(F)(F)F)c2cc(Cc3ccc(S(=O)(=O)NCc4cc(C(F)(F)F)ccc4F)cc3)ccc2[nH]1 [Example 90, N-(2-Fluoro-5-trifluoromethylbenzyl)-4-(2-oxo-4-trifluoromethyl-1,2-dihydroquinolin-6-ylmethyl)-benzenesutfonamide] |
| > 10 | CCOC(=O)CC(NS(=O)(=O)c1ccc(Cc2ccc3[nH]c(=O)cc(C(F)(F)F)c3c2)cc1)c1ccccc1 (stereo not shown) [Example 91, 3-[4-(2-Oxo-4-trifiuoromethyl-1,2-dihydroquinolin-6-ylmethyl)-benzenesulfonylamino]-3-phenylpropionic acid ethyl ester] |
| 2.71 | O=c1cc(C(F)(F)F)c2cc(Cc3ccc(S(=O)(=O)NCC(c4ccccc4)c4ccccc4)cc3)ccc2[nH]1 [Example 92, N-(2,2-Diphenylethyl)-4-(2-oxo-4-trifluoromethyl-1,2-dihydroquinolin-6-ylmethyl)-benzenesulfonamide] |
| > 10 | O=c1cc(C(F)(F)F)c2cc(Cc3ccc(S(=O)(=O)N[C@H]4CCCC[C@H]4OCc4ccccc4)cc3)ccc2[nH]1 [Example 93, N-(2-Benzyloxycyclohexyl)-4-(2-oxo-4-trifluoromethyl-1,2-dihydroquinolin-6-ylmethyl)-benzenesulfonamide] |
| > 10 | O=c1cc(C(F)(F)F)c2cc(Cc3ccc(S(=O)(=O)NCc4ccccc4Sc4ccccc4CO)cc3)ccc2[nH]1 [Example 94, N-[2-(2-Hydroxymethyl-phenylsulfanyl)benzyl]-4-(2-oxo-4-trifluoromethyl-1,2-dihydroquinolin-6-ylmethyl)-benzenesulfonamide] |
| 8.26 | O=c1cc(C(F)(F)F)c2cc(Cc3ccc(S(=O)(=O)N(Cc4ccccc4)Cc4ccccc4)cc3)ccc2o1 [Example 109, N,N-Dibenzyl-4-(2-oxo-4-trifluoromethyl-2H-chromen-6-ylmethyl)benzenesulfonamide] |
| 0.72 | O=c1cc(C(F)(F)F)c2cc(Cc3ccc(S(=O)(=O)Nc4ccccc4)cc3)ccc2o1 [Example 113, 4-(2-Oxo-4-trifluoromethyl-2H-chromen-6-ylmethyl)-N-phenylbenzenesulfonamide] |
